Data: patent publication US8445405B2, “Synergistic herbicidal compositions containing aminopyralid, 2,4-dichlorophenoxyacetic acid and atrazine” (Dow AgroSciences, LLC., priority 2010, dated 2013)

Key:
[1] = test system: redroot pigweed (Amaranthus retroflexus, AMARE); experiment: Field trial, post-emergence weed control in corn (Jalisco, Mexico), visual rating; type: in vivo
Description: (§1) These trials were conducted under normal corn crop conditions. Trial sites were located in commercially grown corn in the Jalisco (Mexico) area. The corn crop was grown using normal cultural practices for fertilization, seeding, and maintenance to ensure good growth of the crop and the weeds. The trials were conducted using normal research methodology. Trial plots were between 6 to 7 meters (m) wide by 10 m long. All treatments were applied using a randomized complete block trial design with 3 or 4 replications per treatment. The trial sites had naturally occurring populations of weeds. The weed spectrum included, but was not limited to, redroot pigweed (Amaranthus retroflexus, AMARE), bur-cucumber (Sicyos angulatus, SIYAN). Treatments consisted of tank mixes of Tronador™ herbicide and atrazine applied in water. The application volumes were between 250 to 300 liters per hectare (L/ha). All applications were made using precision gas hand sprayers using a 3 m boom using flat fan 8002 nozzles to broadcast the treatments on the weeds.
(§2) The treated plots and control plots were rated blind at various intervals after application. Ratings were based on Percent (%) Visual weed control, where 0 corresponds to no injury and 100 corresponds to complete kill.
(§3) Colby's equation was used to determine the herbicidal effects expected from the mixtures (Colby, S. R. Weeds 1967, 15, 20-22. Calculation of the synergistic and antagonistic response of herbicide combinations).
(§4) The following equation was used to calculate the expected activity of mixtures containing two active ingredients, A and B: Expected=A+B−(A×B/100)
(§5) A=observed efficacy of active ingredient A at the same concentration as used in the mixture.
(§6) B=observed efficacy of active ingredient B at the same concentration as used in the mixture.

[2] = test system: bur-cucumber (Sicyos angulatus, SIYAN); experiment: as above; type: in vivo
Description: as §1, §2, §3, §4, §5, §6

[3] = 15 days after application, Atrazine 450 g ai/ha
[4] = 15 days after application, Atrazine 900 g ai/ha
[5] = 30 days after application, Atrazine 450 g ai/ha
[6] = 30 days after application, Atrazine 900 g ai/ha
[7] = 45 days after application, Atrazine 450 g ai/ha
[8] = 45 days after application, Atrazine 900 g ai/ha
[9] = 60 days after application, Atrazine 450 g ai/ha
[10] = 60 days after application, Atrazine 900 g ai/ha

CCNc1nc(Cl)nc(NC(C)C)n1 [Atrazine, 6-chloro-N-ethyl-N′-(1-methylethyl)-1,3,5-triazine-2,4-diamine]
AMARE Obs - Percent control observed [1, 3]: 35%
AMARE Obs - Percent control observed [1, 4]: 46.3%
AMARE Obs - Percent control observed [1, 5]: 77.5%
AMARE Obs - Percent control observed [1, 6]: 82.5%
AMARE Obs - Percent control observed [1, 7]: 91.3%
AMARE Obs - Percent control observed [1, 8]: 94.8%
AMARE Obs - Percent control observed [1, 9]: 91.3%
AMARE Obs - Percent control observed [1, 10]: 97%
SIYAN Obs - Percent control observed [2, 3]: 27.5%
SIYAN Obs - Percent control observed [2, 4]: 42.5%
SIYAN Obs - Percent control observed [2, 5]: 36.3%
SIYAN Obs - Percent control observed [2, 6]: 60%
SIYAN Obs - Percent control observed [2, 7]: 56.3%
SIYAN Obs - Percent control observed [2, 8]: 66.3%
SIYAN Obs - Percent control observed [2, 9]: 53.8%
SIYAN Obs - Percent control observed [2, 10]: 65%
